Source: patent US6313090A, “Methods for treating parasitic infection using thiopeptides” (The United States of America as represented by the …, priority 2000, dated 2001)

Tested on: MDBKF5D2 cell monolayers
Assay: Toxicity testing assay (MTS/PMS, OD 490 nm)
Format: cell-based
Protocol: (§1) Toxicity Testing Assay. 200 μl of medium containing drug at the above-mentioned concentrations and positive control preparations [paromomycin/DMSO (2 mg/ml/0.2%)] were introduced into two wells of a 96 well plate containing confluent MDBKF5D2 cell monolayers (ATCC accession number CCL-22) infected with intact C. parvum GCH1 oocysts (5.0×10^4 per well) (43) and two wells without monolayers. The drug was incubated on the monolayers at 37° C. and 8% CO2. At 48 hours, MTS (Owen's solution) and PMS were added to each well at concentrations of 333 μg/ml and 25 μM respectively. The plate was returned to the incubator in the dark to develop for two hours. At two hours, 100 μl of each supernatant was transferred to a new microtiter plate and the optical density (OD) was read in an ELISA plate reader at 490 nm.
Percent toxicity was calculated by subtracting the mean drug OD from the medium OD, divided by the medium OD, all of which was then multiplied by 100, as shown in the equation below. Cytotoxicity scores were assigned as follows: 0-5% toxicity=0, 6-25% toxicity=1, 26-50% toxicity=2, 51-75% toxicity=3, and 76-100% toxicity=4. As a standard, cytotoxicity scores of 0 or, 1 were considered acceptable levels of toxicity. Toxicity scores of 2, 3, or 4 were considered as high levels of toxicity to the cell monolayer. [formula]
as §1, with “containing drugs” for “containing drug”, “monolayers” for “monolayers (ATCC accession number CCL-22)”, “well)” for “well) (43)”, “and 25μM” for “and 25 μM”
Percent toxicity was calculated by subtracting the mean drug OD from the medium OD, divided by the medium OD, all of which was then multiplied by 100, as shown in the equation below. Cytotoxicity scores were assigned as follows: 0-5% toxicity=0, 6-25% toxicity=1, 26-50% toxicity=2, 51-75% toxicity=3, and 76-100% toxicity=4. As a standard, cytotoxicity scores of 0 or 1 were considered acceptable levels of toxicity. Toxicity scores of 2, 3, or 4 were considered as high levels of toxicity to the cell monolayer. [formula]
as §1, with “monolayers” for “monolayers (ATCC accession number CCL-22)”, “well)” for “well) (43)”, “25μM” for “25 μM”

[1] = Table 2, 2 mg/ml, listed as PRM/DMSO
[2] = Table 4 Washed at 4 hours, 250 μg/ml
[3] = Table 4 Washed at 4 hours, 500 μg/ml
[4] = Table 4 Washed at 4 hours, 1000 μg/ml
[5] = Table 4 Washed at 4 hours, 2000 μg/ml
[6] = Table 5, 2000 μg/ml, drug added at 0 hrs
[7] = Table 5, 2000 μg/ml, drug added at 2 hrs
[8] = Table 5, 2000 μg/ml, drug added at 4 hrs
[9] = Table 5, 2000 μg/ml, drug added at 8 hrs
[10] = Table 5, 2000 μg/ml, drug added at 24 hrs

NC[C@@H]1O[C@H](O[C@H]2[C@@H](O)[C@H](O[C@@H]3[C@@H](O)[C@H](N)C[C@H](N)[C@H]3O[C@H]3O[C@H](CO)[C@@H](O)[C@H](O)[C@H]3N)O[C@@H]2CO)[C@H](N)[C@@H](O)[C@@H]1O [PRM, paromomycin]
Tox. O.D. (Table 1, 2000 μg/ml): .868
Toxicity Percent (Table 1, 2000 μg/ml): 21.09%
Toxicity Score (Table 1, 2000 μg/ml): 1 (6-25% toxicity=1)
Tox. O.D. (Table 2, 2 mg/ml): .954
Toxicity Percent (Table 2, 2 mg/ml): -4.38%
Toxicity Score (Table 2, 2 mg/ml): 0 (0-5% toxicity=0)
Tox. O.D. [1]: .963
Toxicity Percent [1]: 4.37%
Tox. O.D. (Table 3 Unwashed, 250 μg/ml): 1.121
Toxicity Percent (Table 3 Unwashed, 250 μg/ml): -7.53%
Toxicity Score (Table 3 Unwashed, 250 μg/ml): 0 (0-5% toxicity=0)
Tox. O.D. (Table 3 Unwashed, 500 μg/ml): 1.019
Toxicity Percent (Table 3 Unwashed, 500 μg/ml): 2.30%
Toxicity Score (Table 3 Unwashed, 500 μg/ml): 0 (0-5% toxicity=0)
Tox. O.D. (Table 3 Unwashed, 1000 μg/ml): .963
Toxicity Percent (Table 3 Unwashed, 1000 μg/ml): 7.67%
Toxicity Score (Table 3 Unwashed, 1000 μg/ml): 1 (6-25% toxicity=1)
Tox. O.D. (Table 3 Unwashed, 2000 μg/ml): 1.061
Toxicity Percent (Table 3 Unwashed, 2000 μg/ml): -1.73%
Toxicity Score (Table 3 Unwashed, 2000 μg/ml): 0 (0-5% toxicity=0)
Tox. O.D. [2]: 1.121
Toxicity Percent [2]: -7.68%
Toxicity Score [2]: 0 (0-5% toxicity=0)
Tox. O.D. [3]: 1.019
Toxicity Percent [3]: 2.16%
Toxicity Score [3]: 0 (0-5% toxicity=0)
Tox. O.D. [4]: .963
Toxicity Percent [4]: 7.54%
Toxicity Score [4]: 1 (6-25% toxicity=1)
Tox. O.D. [5]: 1.061
Toxicity Percent [5]: -1.87%
Toxicity Score [5]: 0 (0-5% toxicity=0)
Tox. O.D. [6]: .962
Toxicity Percent [6]: 16.17%
Toxicity Score [6]: 1 (6-25% toxicity=1)
Tox. O.D. [7]: .878
Toxicity Percent [7]: 23.49%
Toxicity Score [7]: 1 (6-25% toxicity=1)
Tox. O.D. [8]: .923
Toxicity Percent [8]: 19.56%
Toxicity Score [8]: 1 (6-25% toxicity=1)
Tox. O.D. [9]: .871
Toxicity Percent [9]: 24.05%
Toxicity Score [9]: 1 (6-25% toxicity=1)
Tox. O.D. [10]: .850
Toxicity Percent [10]: 25.93%
Toxicity Score [10]: 1 (6-25% toxicity=1)
Tox. O.D. (Table 6, 2 mg/ml): 1.273
Toxicity Percent (Table 6, 2 mg/ml): 22.74%
Toxicity Score (Table 6, 2 mg/ml): 1 (6-25% toxicity=1)
